What was measured:
Assay type in all cases: biochemical
[1] = molecular target: T1, KDR-IC-FLAG (human KDR, VEGF-receptor 2) (Homo sapiens, UniProt P35968); experiment: KDR kinase enzyme assay (DELFIA) using KDR-IC-FLAG kinase, no wash-out; settings: 10 uM ATP
T1 construct: starting at Met-806 (underlined) (5′-ATGGATCCAGATGAACTCCCATTG) and ending at Val-1356; made in house
From the text: Controls were done by adding DMSO alone, i.e., no test compound, to wells containing the master mix of enzyme plus kinase buffer.

[2] = molecular target: T2, KDR-FLAG enzyme (human KDR) (Homo sapiens, UniProt P35968); experiment: Enzyme wash-out assay, KDR-FLAG enzyme; settings: plate washed three times before ATP addition
T2 construct: starting at Met-806 (underlined) (5′-ATGGATCCAGATGAACTCCCATTG) and ending at Val-1356; made in house
Procedure: (§1) Parallel plates were tested for each test compound wherein one plate was processed as described above in section 6.3 and the second plate was washed three times in 100 ul of 4 mM HEPES, pH 7.4, to remove unbound compound. 1× kinase buffer (30 ul 1 mM MnCl2, 4 mM HEPES, pH 7.4, 20 μM Na3VO4) and 20 ul of ATP/MgCl2 were then added to the wash-out plate. The KDR-FLAG enzyme, as described in 6.1, was used in these assays.

KDR-C1045A [3] = molecular target: T3, KDR-C1045A (Homo sapiens, UniProt P35968, C1045A); experiment: Enzyme wash-out assay, KDR-C1045A mutant enzyme
T3 construct: beginning at Val-805 (forward, 5′ tag cgg ccg cGT CATGGATCCAGATGAACTCCCATT (lower case—NotI site)) and ending at Val-1356; GST-His (thrombin cleavage site) (N); made in house; the mutant was also made in HEK293
Procedure: as §1
(§2) The protein was expressed in HEK293 or Sf9 cells as described for the wild type protein in sections 6.1 and 6.2. The protein was also purified using the FLAG or GST/His tags.
(§3) This mutated protein was designated KDR-C1045A. Additionally, for comparison, the test compounds were assayed using the KDR wild type enzyme in both a basic enzyme assay as well as the enzyme wash-out assay.

KDR wild type enzyme [4] = molecular target: T4, KDR wild type enzyme (Homo sapiens, UniProt P35968); experiment: Enzyme wash-out assay, KDR wild type
T4 construct: beginning at Val-805 (forward, 5′ tag cgg ccg cGT CATGGATCCAGATGAACTCCCATT (lower case—NotI site)) and ending at Val-1356; GST-His (thrombin cleavage site) (N, cleaved yes); made in house; HEK293 possible
Procedure: as §1, §3

KDR wild type enzyme [5] = molecular target: T4, KDR wild type enzyme; experiment: Basic enzyme assay, KDR wild type (GST-His-KDR-IC); settings: mean ± standard deviation (N)
Procedure: as §3

KDR-C1045A [6] = molecular target: T3, KDR-C1045A; experiment: Basic enzyme assay, KDR-C1045A mutant enzyme
Procedure: as §2, §3

T3 sequence (P35968 805-1356 C1045A): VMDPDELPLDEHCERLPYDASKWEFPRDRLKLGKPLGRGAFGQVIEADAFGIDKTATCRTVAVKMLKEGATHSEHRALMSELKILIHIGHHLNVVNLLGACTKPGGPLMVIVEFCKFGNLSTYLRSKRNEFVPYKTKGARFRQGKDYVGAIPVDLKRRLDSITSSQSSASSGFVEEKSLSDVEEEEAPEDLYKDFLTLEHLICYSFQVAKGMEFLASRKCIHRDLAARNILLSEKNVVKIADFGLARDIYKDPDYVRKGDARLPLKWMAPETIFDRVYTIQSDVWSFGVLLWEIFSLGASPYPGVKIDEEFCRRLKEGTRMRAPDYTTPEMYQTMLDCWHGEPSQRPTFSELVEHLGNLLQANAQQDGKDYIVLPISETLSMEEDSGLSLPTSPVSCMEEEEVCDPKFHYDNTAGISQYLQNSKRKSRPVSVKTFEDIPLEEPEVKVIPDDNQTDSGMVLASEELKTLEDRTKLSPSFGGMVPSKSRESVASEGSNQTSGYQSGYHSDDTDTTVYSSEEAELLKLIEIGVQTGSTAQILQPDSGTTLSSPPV
T4 sequence (P35968 805-1356): as the sequence (P35968 805-1356 C1045A) above, with A241C counted along it
T2 sequence (P35968 806-1356): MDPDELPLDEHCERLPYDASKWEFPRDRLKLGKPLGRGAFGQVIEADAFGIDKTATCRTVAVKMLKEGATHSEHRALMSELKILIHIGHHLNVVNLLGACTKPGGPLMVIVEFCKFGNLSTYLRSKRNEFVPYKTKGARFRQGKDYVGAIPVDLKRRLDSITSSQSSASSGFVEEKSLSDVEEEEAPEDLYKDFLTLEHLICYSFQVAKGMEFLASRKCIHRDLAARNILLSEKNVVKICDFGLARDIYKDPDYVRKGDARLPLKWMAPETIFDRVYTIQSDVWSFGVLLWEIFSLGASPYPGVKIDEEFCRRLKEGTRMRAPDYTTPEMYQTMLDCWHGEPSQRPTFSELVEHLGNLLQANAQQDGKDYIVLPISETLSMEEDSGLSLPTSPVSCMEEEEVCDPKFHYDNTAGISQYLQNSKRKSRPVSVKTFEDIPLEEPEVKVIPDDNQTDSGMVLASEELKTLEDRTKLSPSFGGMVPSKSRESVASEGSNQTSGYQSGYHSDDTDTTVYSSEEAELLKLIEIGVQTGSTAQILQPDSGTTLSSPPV
T1 sequence (P35968 806-1356): as above

Row | IC50 [1] | IC50 [2] | KDR-C1045A, WASH OUT percent inhibition at the high dose tested (KDR-C1045A [3]; high dose tested) | IC50 (KDR-C1045A [3]; mean ± standard deviation (N)) | loss of activity upon wash out, wild type KDR (KDR wild type enzyme [4]; wash out vs no wash out) | IC50 (KDR wild type enzyme [4]; wash out, mean ± standard deviation (N)) | IC50 (KDR wild type enzyme [5]) | loss of activity, mutant versus wild type KDR in basic enzyme assay (KDR-C1045A [6]; KDR-C1045A vs wild type) | IC50 (KDR-C1045A [6]; mean ± standard deviation (N)) | Compound
1 | 17.9 nM | 33.1 nM |  |  |  |  |  |  |  | COCCOc1cc2ncnc(NC3=C(Sc4nccs4)C(=O)C=C(OC)C3=O)c2cc1OC [5-methoxy-3-{[6-methoxy-7-(2-methoxyethoxy)quinazolin-4-yl]amino}-2-(1,3-thiazoylthio)benzo-1,4-quinone]
2 |  |  | 33% | > 1000 nM | partially washed out | 277 nM | 63.2 ± 23.5 nM | less than a five times loss of activity | 301 ± 140 nM | COc1cc2c(Oc3ccc4[nH]c(C)cc4c3F)c(C#N)cnc2cc1OCC1CCN(C)CC1 [4-[(4-fluoro-2-methyl-1H-indol-5-yl)oxy]-6-methoxy-7-[(1-methylpiperidin-4-yl)methoxy]quinoline-3-carbonitrile]

From patent US20080268460A1, “Assays to Identify Irreversibly Binding Inhibitors of Receptor Tyrosine Kinases” (Wyeth, priority 2004, published 2008)
